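All cell lines were grown in 96-well plates and treated with compound for 48 hours. TGI marks complete inhibition of growth.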
Assays:
Assay in all cases: inhibition of tumour cell growth, NCI panel, 48 h
[1] = system: OVCAR-4 ovarian
[2] = system: DMS 114 small cell lung
[3] = system: RXF 393 renal
[4] = system: SK-MEL-5 melanoma
[5] = system: NCI-H460 lung
[6] = system: SF-539 CNS
[7] = system: HCT-116 colon
[8] = system: LOX IMVI melanoma
[9] = system: UACC-257 melanoma
[10] = system: NCI-H226 lung
[11] = system: U251 CNS
[12] = system: A549 NSCLC
[13] = system: IGROV1 ovarian
[14] = system: CCRF-CEM leukemia
[15] = system: ACHN renal
[16] = system: SN12C renal
[17] = system: HOP-92 NSCLC
[18] = system: MOLT-4 leukemia
[19] = system: K-562 leukemia
[20] = system: OVCAR-5 ovarian
[21] = system: NCI-H522 lung
[22] = system: RPMI-8226 leukemia
[23] = system: DLD-1 colon
[24] = system: SNB-75 CNS
[25] = system: OVCAR-3 ovarian
[26] = system: HCC-2998 colon
[27] = system: LXFL 529 NSCLC
[28] = system: OVCAR-8 ovarian
[29] = system: KM12 colon
[30] = system: KM20L2 colon
[31] = system: XF 498 CNS
[32] = system: UO-31 renal
[33] = system: 786-0 renal
[34] = system: HCT-15 colon
[35] = system: SR leukemia
[36] = system: COLO 205 colon
[37] = system: NCI-H23 lung
[38] = system: TK-10 renal
[39] = system: HT29 colon
[40] = system: A498 renal
[41] = system: SW-620 colon
[42] = system: RXF-631 renal
[43] = system: DMS 273 small cell lung
[44] = system: MALME-3M melanoma
[45] = system: CAKI-1 renal
[46] = system: SNB-78 CNS
[47] = system: M14 melanoma
[48] = system: SK-OV-3 ovarian
[49] = system: SF-268 CNS
[50] = system: SK-MEL-2 melanoma
[51] = system: SNB-19 CNS
[52] = system: SK-MEL-28 melanoma
[53] = system: HOP-62 NSCLC
[54] = system: M19-MEL melanoma
[55] = system: SF-295 CNS
[56] = system: EKVX NSCLC
[57] = system: HOP-18 NSCLC
[58] = system: UACC-62 melanoma
[59] = system: HL-60(TB) leukemia

`N#C/C1=C(\N)CCSSSC1` was tested, and the TGI [1] was over 100 µM, the TGI [2] was over 100 µM and the TGI [3] was over 100 µM. For the same compound, the TGI [4] was 60.9 µM, the TGI [5] was 51.2 µM and the TGI [6] was over 100 µM. The TGI [7] was over 100 µM, the TGI [8] was over 100 µM and the TGI [9] was over 100 µM. For the same compound, the TGI [10] was 65.8 µM, the TGI [11] was over 100 µM and the TGI [12] was over 100 µM. The TGI [13] was over 100 µM, the TGI [14] was over 100 µM and the TGI [15] was over 100 µM. It also gave a TGI [16] of over 100 µM, a TGI [17] of 95.6 µM and a TGI [18] of over 100 µM. The TGI [19] was over 100 µM, the TGI [20] was over 100 µM and the TGI [21] was 45.6 µM. The TGI [22] was over 100 µM, the TGI [23] was over 100 µM and the TGI [24] was over 100 µM. For the same compound, the TGI [25] was over 100 µM, the TGI [26] was over 100 µM and the TGI [27] was over 100 µM. The TGI [28] was 43.2 µM, the TGI [29] was over 100 µM and the TGI [30] was 49.3 µM. It also gave a TGI [31] of over 100 µM, a TGI [32] of over 100 µM and a TGI [33] of over 100 µM. For the same compound, the TGI [34] was 98.2 µM, the TGI [35] was over 100 µM and the TGI [36] was over 100 µM. It also gave a TGI [37] of over 100 µM, a TGI [38] of over 100 µM and a TGI [39] of over 100 µM. It also gave a TGI [40] of 58 µM, a TGI [41] of over 100 µM and a TGI [42] of over 100 µM. The TGI [43] was over 100 µM, the TGI [44] was over 100 µM and the TGI [45] was over 100 µM. The TGI [46] was over 100 µM, the TGI [47] was 95.9 µM and the TGI [48] was over 100 µM. It also gave a TGI [49] of over 100 µM, a TGI [50] of 90.5 µM and a TGI [51] of over 100 µM. The TGI [52] was over 100 µM, the TGI [53] was 89.6 µM and the TGI [54] was over 100 µM. The TGI [55] was 50.8 µM and the TGI [56] was over 100 µM.

`C1CN2CCN3CCN4CCN1[P+]243` showed a TGI [1] of over 100 µM, a TGI [57] of over 100 µM and a TGI [2] of over 100 µM. The TGI [3] was over 100 µM, the TGI [4] was over 100 µM and the TGI [5] was over 100 µM. It also gave a TGI [6] of over 100 µM, a TGI [7] of over 100 µM and a TGI [8] of over 100 µM. It also gave a TGI [9] of over 100 µM, a TGI [10] of over 100 µM and a TGI [11] of over 100 µM. For the same compound, the TGI [12] was over 100 µM, the TGI [13] was over 100 µM and the TGI [58] was over 100 µM. The TGI [14] was over 100 µM, the TGI [15] was over 100 µM and the TGI [16] was over 100 µM. The TGI [18] was over 100 µM, the TGI [19] was over 100 µM and the TGI [20] was over 100 µM. The TGI [21] was over 100 µM, the TGI [22] was over 100 µM and the TGI [23] was over 100 µM. For the same compound, the TGI [24] was over 100 µM, the TGI [25] was over 100 µM and the TGI [26] was over 100 µM. For the same compound, the TGI [27] was over 100 µM, the TGI [28] was over 100 µM and the TGI [29] was over 100 µM. For the same compound, the TGI [30] was over 100 µM, the TGI [31] was over 100 µM and the TGI [32] was over 100 µM. It also gave a TGI [33] of over 100 µM, a TGI [59] of over 100 µM and a TGI [34] of over 100 µM. The TGI [35] was over 100 µM, the TGI [36] was over 100 µM and the TGI [37] was over 100 µM. The TGI [38] was over 100 µM, the TGI [39] was over 100 µM and the TGI [40] was over 100 µM. For the same compound, the TGI [41] was over 100 µM, the TGI [43] was over 100 µM and the TGI [44] was over 100 µM. For the same compound, the TGI [46] was over 100 µM, the TGI [47] was over 100 µM and the TGI [48] was over 100 µM. The TGI [50] was over 100 µM, the TGI [51] was over 100 µM and the TGI [52] was over 100 µM. For the same compound, the TGI [53] was over 100 µM, the TGI [54] was over 100 µM and the TGI [55] was over 100 µM. For the same compound, the TGI [56] was over 100 µM.

`C/C(Cc1ccccc1)=N\NC(N)=S` showed a TGI [1] of over 100 µM, a TGI [57] of over 100 µM and a TGI [2] of over 100 µM. For the same compound, the TGI [3] was over 100 µM, the TGI [5] was over 100 µM and the TGI [6] was over 100 µM. It also gave a TGI [8] of over 100 µM, a TGI [11] of over 100 µM and a TGI [13] of over 100 µM. It also gave a TGI [58] of over 100 µM, a TGI [14] of over 100 µM and a TGI [15] of over 100 µM. For the same compound, the TGI [16] was over 100 µM, the TGI [17] was over 100 µM and the TGI [18] was over 100 µM. For the same compound, the TGI [19] was over 100 µM, the TGI [22] was over 100 µM and the TGI [24] was over 100 µM. It also gave a TGI [27] of over 100 µM, a TGI [30] of over 100 µM and a TGI [31] of over 100 µM. For the same compound, the TGI [59] was over 100 µM, the TGI [34] was over 100 µM and the TGI [36] was over 100 µM. For the same compound, the TGI [37] was over 100 µM, the TGI [40] was over 100 µM and the TGI [42] was over 100 µM. For the same compound, the TGI [43] was over 100 µM, the TGI [46] was over 100 µM and the TGI [47] was over 100 µM. It also gave a TGI [48] of over 100 µM, a TGI [51] of over 100 µM and a TGI [52] of over 100 µM. The TGI [54] was over 100 µM.

`O=C1/C(=C/c2ccc3c(c2)OCO3)SC2C=Nc3ccccc3N12` (configuration not stated) gave a TGI [1] of over 100 µM, a TGI [57] of over 100 µM and a TGI [2] of over 100 µM. For the same compound, the TGI [3] was over 100 µM, the TGI [4] was over 100 µM and the TGI [5] was over 100 µM. For the same compound, the TGI [6] was over 100 µM, the TGI [7] was over 100 µM and the TGI [9] was over 100 µM. It also gave a TGI [10] of over 100 µM, a TGI [11] of over 100 µM and a TGI [12] of over 100 µM. For the same compound, the TGI [13] was over 100 µM, the TGI [58] was over 100 µM and the TGI [15] was over 100 µM. It also gave a TGI [16] of over 100 µM, a TGI [17] of over 100 µM and a TGI [18] of over 100 µM. The TGI [20] was over 100 µM, the TGI [21] was over 100 µM and the TGI [23] was over 100 µM. For the same compound, the TGI [24] was over 100 µM, the TGI [25] was over 100 µM and the TGI [26] was over 100 µM. It also gave a TGI [27] of over 100 µM, a TGI [28] of over 100 µM and a TGI [29] of over 100 µM. For the same compound, the TGI [30] was over 100 µM, the TGI [31] was over 100 µM and the TGI [32] was over 100 µM. It also gave a TGI [33] of over 100 µM, a TGI [34] of over 100 µM and a TGI [36] of over 100 µM. For the same compound, the TGI [37] was over 100 µM, the TGI [38] was over 100 µM and the TGI [39] was over 100 µM. The TGI [40] was over 100 µM, the TGI [41] was over 100 µM and the TGI [42] was over 100 µM. It also gave a TGI [43] of over 100 µM, a TGI [44] of over 100 µM and a TGI [45] of over 100 µM. It also gave a TGI [46] of over 100 µM, a TGI [47] of over 100 µM and a TGI [49] of over 100 µM. The TGI [50] was over 100 µM, the TGI [51] was over 100 µM and the TGI [52] was over 100 µM. The TGI [53] was over 100 µM, the TGI [54] was over 100 µM and the TGI [55] was over 100 µM. It also gave a TGI [56] of over 100 µM.
